The record followed here is ChEMBL document CHEMBL1144736, “Novel inhibitors of 17beta-hydroxysteroid dehydrogenase type 1: templates for design” (Bioorg Med Chem, 2008).

What all share (format): cell-based
Experiment [1] has as its target T1, 17-beta-hydroxysteroid dehydrogenase type 1 (Homo sapiens) (UniProt P14061).
T1 sequence (whole entry): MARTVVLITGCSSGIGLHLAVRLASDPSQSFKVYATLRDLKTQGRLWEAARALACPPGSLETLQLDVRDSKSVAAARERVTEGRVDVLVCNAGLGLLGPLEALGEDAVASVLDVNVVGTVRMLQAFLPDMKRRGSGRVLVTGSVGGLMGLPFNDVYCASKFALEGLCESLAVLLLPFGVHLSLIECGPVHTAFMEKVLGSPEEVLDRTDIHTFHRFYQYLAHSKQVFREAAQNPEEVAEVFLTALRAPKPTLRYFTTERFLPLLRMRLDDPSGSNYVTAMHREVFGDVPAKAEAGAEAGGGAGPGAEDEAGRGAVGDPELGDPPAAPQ
The experiment can be described thus: Inhibition of 17beta-HSD1 expressed in intact human T47D cells at 10 uM after 30 mins.

Experiment [2] has as its target T2, 17-beta-hydroxysteroid dehydrogenase type 2 (Homo sapiens) (UniProt P37059).
T2 sequence (whole entry): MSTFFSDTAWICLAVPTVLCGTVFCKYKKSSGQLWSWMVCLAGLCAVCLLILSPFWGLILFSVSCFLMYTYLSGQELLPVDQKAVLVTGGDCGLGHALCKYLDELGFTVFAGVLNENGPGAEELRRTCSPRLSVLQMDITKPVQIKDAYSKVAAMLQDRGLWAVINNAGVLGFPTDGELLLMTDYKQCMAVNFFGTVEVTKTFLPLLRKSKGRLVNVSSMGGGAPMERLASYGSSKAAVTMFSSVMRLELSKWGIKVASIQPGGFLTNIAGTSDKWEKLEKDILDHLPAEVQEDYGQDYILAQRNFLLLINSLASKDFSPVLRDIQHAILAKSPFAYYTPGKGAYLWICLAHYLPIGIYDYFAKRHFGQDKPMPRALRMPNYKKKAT
The experiment can be described thus: Inhibition of 17beta-HSD2 expressed in intact human MDA-MB-231 cells at 10 uM after 3 hrs.

Experiment [3] has as its target T3, 17-beta-hydroxysteroid dehydrogenase type 1 (Homo sapiens, UniProt P14061).
T3 sequence (P14061 whole entry): T1 sequence (whole entry)
The experiment is described as follows: Inhibition of 17beta-HSD1 expressed in intact human T47D cells after 30 mins.

For experiment [4], the target named is T1, 17-beta-hydroxysteroid dehydrogenase type 1 (Homo sapiens). The experiment is described as follows: Inhibition of 17beta-HSD1 expressed in intact human T47D cells at 1 uM after 30 mins.

pIC50: −log10 of the molar value. Active and inactive are the calls of the source. The calls are words filed in the database; no cut-off is given here.

For the molecule `O=C1CCc2cc(-c3ccc(O)cc3)ccc21`, the inhibition in experiment [1] is 81%; in experiment [2], 17%. Besides, the pIC50 in experiment [3] was 5.77.
As for `O=C1CCCc2cc(-c3ccc(O)cc3)ccc21`, the inhibition in experiment [1] is 89%. Further, the negative logarithm of the IC50 (pIC50) in experiment [3] was 4.81.
In experiment [3], `CCc1cc2c(cc1O)CC[C@@H]1[C@@H]2CC[C@]2(C)C(=O)[C@@H](CC(=O)NCc3cccnc3)C[C@@H]12` showed a pIC50 of 7.57.
Regarding `COc1ccc(-c2ccc3c(c2)CCC3=O)cc1`, in experiment [1], the result was inactive.
As for `CCc1cc(-c2ccc3c(c2)CCCC3=O)ccc1O`, in experiment [1], the inhibition is 51%.
Regarding `CCc1cc(-c2ccc(C(=O)CCC(=O)NCCO)cc2)ccc1O`, the inhibition in experiment [4] was determined as 23%.
In experiment [1], `CCc1cc(-c2ccc(O)cc2)ccc1C(C)=O` showed an inhibition of 71%. This molecule also gave a pIC50 in experiment [3] of 5.00.
Regarding `CC(=O)c1ccc(-c2ccc(O)cc2)cc1`, in experiment [1], the inhibition was 97%. For the same molecule, the pIC50 in experiment [3] was 5.43.
Turning to `COc1ccc(-c2ccc(C(C)=O)cc2)c(C)c1`, in experiment [1], the outcome was inactive.
Take `CCc1cc(-c2ccc(C(=O)CCC(=O)NCc3cccnc3)cc2)ccc1O`: the inhibition in experiment [2] is 12%; in experiment [4] it was 24%. For the same molecule, the pIC50 in experiment [3] was 5.43.
For `CCc1cc(-c2ccc3c(c2)CC(CC(=O)NCc2cnc(C)cn2)C3=O)ccc1O` (stereo not drawn), in experiment [4], the outcome was inactive.
Regarding `CCc1cc(-c2ccc3c(c2)CC(CC(=O)NCc2cccnc2)C3=O)ccc1O` (stereo not drawn), the pIC50 in experiment [3] was 5.33. In addition, the inhibition in experiment [4] turned out to be 39%.
In experiment [1], `CC(=O)c1ccc2c(c1)Cc1cc(O)ccc1-2` returned an inhibition of 86%. Also, the pIC50 in experiment [3] was 5.32.
For `COc1ccc(-c2ccc3c(c2)CCC3=O)cc1F`, in experiment [1], the inhibition was found to be 56%.
On to `CCc1cc(-c2ccc(C(=O)CC(C)(C)C(=O)NCc3cccnc3)cc2)ccc1OC`, for which, in experiment [4], the inhibition turned out to be 17%.
Turning to `CCc1cc(-c2ccc3c(c2)CC(CC(=O)NCc2ccccn2)C3=O)ccc1O` (stereo not drawn), in experiment [4], the result was inactive.
On to `O=C1CCc2cc(-c3ccccc3)ccc21`, for which the result in experiment [1] was inactive.
On to `CCc1cc(-c2ccc3c(c2)CCC3=O)ccc1OC`, for which the outcome in experiment [1] was inactive.
In the case of `CC(=O)c1ccc(-c2ccc3c(c2)OCO3)cc1`, the result in experiment [1] was inactive.
In the case of `CCc1cc(-c2ccc(C(=O)CCC(=O)NCCc3cccnc3)cc2)ccc1O`, the inhibition in experiment [4] amounted to 17%.
As for `COc1ccc(-c2ccc(C(C)=O)cc2)cc1`, in experiment [1], the result was inactive.
With `CCc1cc(-c2ccc3c(c2)CCC3=O)ccc1O`, the inhibition in experiment [1] was found to be 86%; in experiment [2], 48%. Also, the negative-log IC50 (pIC50) in experiment [3] is 5.70.
For the molecule `COc1ccc(-c2ccc3c(c2)CCCC3=O)cc1`, the result in experiment [1] was inactive.
With `O=C1CCc2cc(-c3ccc(O)c(F)c3)ccc21`, the inhibition in experiment [1] was 75%; in experiment [2] it was 24%. The molecule further had a pIC50 in experiment [3] of 5.54.
Take `CCc1cc(-c2ccc(C(=O)CC(C)(C)C(=O)NCCc3cccnc3)cc2)ccc1O`: in experiment [4], the inhibition came out at 15%.
Take `CCc1cc(-c2ccc(C(=O)CCC(=O)NCc3ccccn3)cc2)ccc1O`: the outcome in experiment [4] was inactive.
For `CC(=O)c1ccc(-c2ccc(O)cc2C)cc1`, the pIC50 in experiment [3] is 5.43.
The molecule `CCc1cc(-c2ccc3c(c2)CCCC3=O)ccc1OC` yielded an inhibition in experiment [1] of 71%. The pIC50 in experiment [3] was 5.08.
`COc1ccc2c(c1)Cc1cc(C(C)=O)ccc1-2`: in experiment [1], the outcome was inactive.
Take `CCc1cc(-c2ccc(C(=O)CCC(=O)NCc3cccnc3)c(C)c2)ccc1O`: in experiment [4], the inhibition was found to be 21%.
`CCc1cc(-c2ccc(C(=O)CCC(=O)NCCc3cccnc3)c(C)c2)ccc1O` yielded an inhibition in experiment [4] of 15%.
For `COc1ccc(-c2ccc(C(C)=O)cc2C)cc1`, the result in experiment [1] was inactive.
As to `CCc1cc(-c2ccc(C(C)=O)cc2)ccc1OC`, the outcome in experiment [1] was inactive.
On to `CCc1cc(-c2ccc(C(C)=O)cc2)ccc1O`, for which the inhibition was 73% in experiment [1] and 51% in experiment [2]. The same molecule had a pIC50 in experiment [3] of 5.27.
`CCc1cc(-c2ccc(C(=O)CC(C)(C)C(=O)NCc3cccnc3)cc2)ccc1O` showed a negative logarithm of the IC50 (pIC50) in experiment [3] of 5.74. In experiment [4], this molecule yielded an inhibition of 38%.
As for `CC(=O)c1ccc(-c2ccc(O)cc2)c(C)c1`, the result in experiment [1] was inactive.

Broadly, the inhibition is how much of the control response was suppressed. The term pIC50 denotes the negative decadic logarithm of the IC50, by convention in mol/L. Higher therefore signals a small IC50.
